The record followed here is patent publication US10344019B2 (priority 2010, dated 2019).

Holding throughout (experiment): microbe, parasite or virus in culture
Holding throughout (type): cell-based

Test [1] relates to HCV 1a RLuc cells (dicistronic genotype 1a H77 replicon, RLuc reporter). Conditions: read-out: 1a. An outline of the steps: (§1)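 Replicons used: genotype 1b Con1, 1a H77, 2a JFH-1, and a 2a JFH-1 chimera with J6-strain NS5A (M31 present), all dicistronic.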
Test [2] deals with HCV 4a Rluc cells (NS5A chimeric genotype 1b Con1 replicon with genotype 4a NS5A gene). Conditions: Hepatitis C virus, read-out: 4a. An outline of the steps: (§2)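 Replicon cells stably carrying the listed RLuc-encoding dicistronic replicons were seeded and treated with DMSO serial dilutions of compound (10 mM stocks) diluted into culture medium. After 72 h, cells were lysed and Renilla luciferase activity measured. EC50 was derived by non-linear regression.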

The test system of test [3] is HCV 3a RLuc cells (NS5A chimeric genotype 1b Con1 replicon with consensus genotype 3a NS5A gene). Conditions: Hepatitis C virus. An outline of the steps:
as §2

For test [4], the system named is HCV 1b RLuc cells (dicistronic genotype 1b Con1 replicon, RLuc reporter). Conditions: Hepatitis C virus, read-out: 1b (nM). An outline of the steps:
as §1

The subject of test [5] is HCV 2a JFH-1 Rluc cells (dicistronic genotype 2a JFH-1 replicon, RLuc reporter). Conditions: Hepatitis C virus, genotype 2a JFH-1 replicon, read-out: 2a JFH. An outline of the steps: as §1
In general terms: Replicon systems follow genome replication, usually without infectious particles.

[6] abbreviates: read-out: 3a, genotype 3a NS5A chimeric 1b Con1 replicon.
Setting [7] is: Hepatitis C virus, genotype 1a replicon.
[8] abbreviates: read-out: 3a, genotype 3a replicon.
The mark [9] stands for this setting: Hepatitis C virus, 72 h, Table 1, genotype 1a H77 replicon, 72 hours.
[10] abbreviates: read-out: 3a, Table 1, genotype 3a NS5A chimeric replicon.
Where [11] appears, read: Hepatitis C virus, 72 h, Table 2, genotype 1a H77 replicon, 72 hours.
Setting [12] is: read-out: 3a, Table 2, genotype 3a NS5A chimeric replicon.
The mark [13] stands for this setting: Hepatitis C virus, genotype 1a H77 replicon, RLuc reporter.

Like-named read-outs stand apart in the source and are kept apart here. Some results are limits rather than exact numbers.

For the compound `COC(=O)N[C@H](C(=O)N1CCC[C@H]1c1ncc(-c2ccc3cc(-c4ccc(-c5cnc([C@@H]6CCCN6C(=O)[C@@H](NC(=O)OCc6ccccc6)C6CCSCC6)[nH]5)cc4)ccc3c2)[nH]1)C(C)C` [Example 275], the EC50 in test [1] (genotype 1a H77 replicon, RLuc reporter) is 1 to 44 nM; in test [2] it was > 5 nM; in test [3] (setting [6]), > 5 nM; in test [4] it was 2.15 nM; in test [5] (RLuc reporter) it was > 44 nM.
Take `COC(=O)N[C@H](C(=O)N1[C@@H]2C[C@@H]2C[C@H]1c1nc2ccc3cc(-c4ccc5c(ccc6nc([C@@H]7[C@H]8CC[C@H](C8)N7C(=O)[C@H](NC(=O)OC)c7ccccc7)[nH]c65)c4)ccc3c2[nH]1)C(C)C` [Example 343]: the EC50 is 0.001 to 0.999 nM in test [1] (setting [7]); 0.001 to 0.99 nM in test [2]; 0.001 to 0.99 nM in test [3] (setting [8]); 0.012 nM in test [4]; 0.001 to 0.999 nM in test [5].
Regarding `COC(=O)N[C@H](C(=O)N1[C@@H]2CC[C@@H](C2)[C@H]1c1nc2ccc3cc(-c4ccc(-c5cnc([C@@H]6C[C@H]7C[C@H]7N6C(=O)[C@H](NC(=O)OC)c6ccccc6)[nH]5)cc4)ccc3c2[nH]1)C(C)C` [Example 368], the EC50 was 0.001 to 0.999 nM in test [1] (setting [7]); 0.001 to 0.99 nM in test [2]; 0.001 to 0.99 nM in test [3] (setting [8]); 0.012 nM in test [4]; 0.001 to 0.999 nM in test [5].
In the case of `COC(=O)N[C@H](C(=O)N1CCS[C@H]1c1nc2ccc3cc(-c4ccc(-c5cnc([C@@H]6CCCN6C(=O)[C@@H](NC(=O)OC)C6CCOCC6)[nH]5)cc4)ccc3c2[nH]1)C(C)C` [Example 316], the EC50 in test [1] (setting [7]) was 0.001 to 0.999 nM; in test [2], 0.001 to 0.99 nM; in test [3] (setting [8]), 0.001 to 0.99 nM; in test [4] it was 0.242 nM; in test [5], 0.001 to 0.999 nM.
For `COC(=O)N[C@H](C(=O)N1CCC[C@H]1c1ncc(-c2ccc3c(c2)COc2c-3ccc3cc(-c4cnc([C@@H]5CCCN5C(=O)[C@@H](NC(=O)OC)[C@@H](C)OC)[nH]4)ccc23)[nH]1)[C@@H](C)OC` [Example 17], the EC50 was 0.001 to 0.999 nM in test [1] (setting [9]); 0.001 to 0.99 nM in test [2]; > 5 nM in test [3] (setting [10]); 0.014 nM in test [4] (72 h); 0.001 to 0.999 nM in test [5] (72 h, Table 1, 72 hours).
As for `COC(=O)N[C@H](C(=O)N1CCC[C@H]1c1ncc(-c2ccc3c(c2)CCc2cc(-c4ccc5nc([C@@H]6[C@H]7CC[C@H](C7)N6C(=O)[C@@H](NC(=O)OC)C6CCOCC6)[nH]c5c4)ccc2-3)[nH]1)C1CCOCC1` [Example 77], the EC50 is 0.001 to 0.999 nM in test [1] (setting [11]); 0.001 to 0.99 nM in test [2]; 0.001 to 0.99 nM in test [3] (setting [12]); 0.029 nM in test [4] (72 h); 0.001 to 0.999 nM in test [5] (72 h, Table 2, 72 hours).
In the case of `COC(=O)N[C@H](C(=O)N1CCC[C@H]1c1ncc(-c2ccc3c(c2)sc2cc(-c4cnc([C@@H]5CCCN5C(=O)[C@H](NC(=O)OC)c5ccccc5)[nH]4)ccc23)[nH]1)C(C)C` [Example 250], the EC50 in test [1] (setting [13]) is 0.001 to 0.999 nM; in test [2], 0.001 to 0.99 nM; in test [3] (setting [6]) it was 0.001 to 0.99 nM; in test [4], 0.004 nM; in test [5] (RLuc reporter), 0.001 to 0.999 nM.
Regarding `COC(=O)N[C@H](C(=O)N1CCC[C@H]1c1ncc(-c2ccc3c(c2)CCc2cc(-c4cnc([C@@H]5[C@H]6CC[C@H](C6)N5C(=O)[C@@H](NC(=O)OC)C5CCOCC5)[nH]4)ccc2-3)[nH]1)C(C)C` [Example 92], the EC50 in test [1] (setting [11]) was 0.001 to 0.999 nM; in test [2], 0.001 to 0.99 nM; in test [3] (setting [12]), 0.001 to 0.99 nM; in test [4] (72 h), 0.047 nM; in test [5] (72 h, Table 2, 72 hours) it was 0.001 to 0.999 nM.
Take `COC(=O)N[C@H](C(=O)N1C[C@@H](O)C[C@H]1c1ncc(-c2ccc3cc(-c4ccc(-c5cnc([C@@H]6CCCN6C(=O)[C@H](NC(=O)OC)c6ccccc6)[nH]5)cc4)ccc3c2)[nH]1)C(C)C` [Example 223]: the EC50 in test [1] (setting [13]) is 1 to 44 nM; in test [2], 0.001 to 0.99 nM; in test [3] (setting [6]), 1 to 4.99 nM; in test [4] it was 0.022 nM; in test [5] (RLuc reporter), 0.001 to 0.999 nM.
The matching figures for `COC(=O)N[C@H](C(=O)N1CCC[C@H]1c1ncc(-c2ccc(C#Cc3ccc4c(ccc5nc([C@@H]6CCCN6C(=O)[C@@H](NC(=O)OC)C6CCOCC6)[nH]c54)c3)cc2)[nH]1)C(C)C` [Example 229]: 0.001 to 0.999 nM, 0.001 to 0.99 nM, 1 to 4.99 nM, 0.018 nM and 0.001 to 0.999 nM.
Take `COC(=O)N[C@H](C(=O)N1[C@@H]2CC[C@@H](C2)[C@H]1c1nc2ccc3cc(-c4ccc(-c5cnc([C@@H]6C[C@H]7C[C@H]7N6C(=O)[C@@H](NC(=O)OC)C(C)C)[nH]5)cc4)ccc3c2[nH]1)C(C)C` [Example 340]: the EC50 in test [1] (setting [7]) is 0.001 to 0.999 nM; in test [2] it was 0.001 to 0.99 nM; in test [3] (setting [8]), 0.001 to 0.99 nM; in test [4], 0.013 nM; in test [5], 0.001 to 0.999 nM.
With `COC(=O)N[C@H](C(=O)N1CCC[C@H]1c1nc(-c2ccc3cc(-c4ccc5c(ccc6nc([C@@H]7CCCN7C(=O)[C@H](NC(=O)OC)c7ccccc7)[nH]c65)c4)sc3c2)c[nH]1)[C@H](C)OC` [Example 257], the EC50 in test [1] (setting [13]) was 0.001 to 0.999 nM; in test [2], 0.001 to 0.99 nM; in test [3] (setting [6]), 0.001 to 0.99 nM; in test [4] it was 0.013 nM; in test [5] (RLuc reporter) it was 0.001 to 0.999 nM.
For the compound `COC(=O)N[C@H](C(=O)N1[C@@H]2CC[C@@H](C2)[C@H]1c1nc2ccc(-c3ccc4c(c3)C(F)(F)c3cc(-c5cnc([C@@H]6CCCN6C(=O)[C@H](NC(=O)OC)c6ccccc6)[nH]5)ccc3-4)cc2[nH]1)C(C)C` [Example 41], the EC50 was 0.001 to 0.999 nM in test [1] (setting [11]); 0.001 to 0.99 nM in test [2]; 0.001 to 0.99 nM in test [3] (setting [12]); 0.005 nM in test [4] (72 h); 0.001 to 0.999 nM in test [5] (72 h, Table 2, 72 hours).
As to `COC(=O)N[C@H](C(=O)N1C[C@@H](C#N)C[C@H]1c1ncc(-c2ccc3cc(-c4ccc(-c5cnc([C@@H]6CCCN6C(=O)[C@H](NC(=O)OC)c6ccccc6)[nH]5)cc4)ccc3c2)[nH]1)C(C)C` [Example 116], the EC50 was 0.001 to 0.999 nM in test [1] (setting [13]); 0.001 to 0.99 nM in test [2]; 0.001 to 0.99 nM in test [3] (setting [6]); 0.008 nM in test [4]; 0.001 to 0.999 nM in test [5] (RLuc reporter).
`COC(=O)N[C@H](C(=O)N1CCC[C@H]1c1ncc(-c2ccc(-c3ccc4c(ccc5nc([C@@H]6CCCN6C(=O)[C@@H](NC(=O)OC)C(C)C)[nH]c54)c3)c(C#CC3CC3)c2)[nH]1)C(C)C` [Example 349]: the EC50 in test [1] (setting [7]) was 0.001 to 0.999 nM; in test [2], 0.001 to 0.99 nM; in test [3] (setting [8]) it was 0.001 to 0.99 nM; in test [4] it was 0.005 nM; in test [5], 0.001 to 0.999 nM.
Regarding `COC(=O)N[C@H](C(=O)N1CCC[C@H]1c1ncc(-c2ccc3c(c2)C(=C(C)C)c2cc(-c4cnc([C@@H]5CCCN5C(=O)[C@@H](NC(=O)OC)C(C)C)[nH]4)ccc2-3)[nH]1)C(C)C` [Example 249], the EC50 was 1 to 44 nM in test [1] (setting [13]); 0.001 to 0.99 nM in test [2]; > 5 nM in test [3] (setting [6]); 0.014 nM in test [4]; 1 to 44 nM in test [5] (RLuc reporter).
For the compound `COC(=O)NC(C(=O)N1CCC[C@H]1c1ncc(-c2ccc(-c3ccc4c(ccc5nc([C@@H]6[C@H]7CC[C@H](C7)N6C(=O)[C@@H](NC(=O)OC)C(C)C)[nH]c54)c3)cc2)[nH]1)C1CCOCC1` (stereo partly shown) [Example 69], the EC50 in test [1] (setting [11]) is 0.001 to 0.999 nM; in test [2], 0.001 to 0.99 nM; in test [3] (setting [12]) it was 0.001 to 0.99 nM; in test [4] (72 h) it was 0.035 nM; in test [5] (72 h, Table 2, 72 hours) it was 0.001 to 0.999 nM.
As for `COC(=O)N[C@H](C(=O)N1CCC[C@H]1c1nc2ccc3cc(-c4ccc5c(c4)CCc4nc([C@@H]6[C@H]7CC[C@H](C7)N6C(=O)[C@@H](NC(=O)OC)C(C)C)[nH]c4-5)ccc3c2[nH]1)C(C)C` [Example 290], the EC50 in test [1] (setting [7]) is 0.001 to 0.999 nM; in test [2], 0.001 to 0.99 nM; in test [3] (setting [8]), 0.001 to 0.99 nM; in test [4], 0.017 nM; in test [5] it was 0.001 to 0.999 nM.
For the compound `COC(=O)N[C@H](C(=O)N1CCC[C@H]1c1ncc(-c2ccc3c4ccc(-c5cnc([C@@H]6CCCN6C(=O)[C@@H](NC(=O)OC)C(C)C)[nH]5)cc4c4nccnc4c3c2)[nH]1)C(C)C` [Example 18], the EC50 in test [1] (setting [9]) is 0.001 to 0.999 nM; in test [2] it was 0.001 to 0.99 nM; in test [3] (setting [10]), 1 to 4.99 nM; in test [4] (72 h), 0.018 nM; in test [5] (72 h, Table 1, 72 hours) it was 0.001 to 0.999 nM.
As for `COC(=O)N[C@H](C(=O)N1c2ccccc2C[C@H]1c1ncc(-c2ccc(-c3ccc(-c4cnc([C@@H]5Cc6ccccc6N5C(=O)[C@@H](NC(=O)OC)C(C)C)[nH]4)cc3)cc2)[nH]1)C(C)C` [Example 267], the EC50 is 1 to 44 nM in test [1] (setting [13]); 0.001 to 0.99 nM in test [2]; > 5 nM in test [3] (setting [6]); 0.045 nM in test [4]; > 44 nM in test [5] (RLuc reporter).
